# Assay results taken from publication PMC12064818, “A general assay platform to study protein pharmacology using ligand-dependent structural dynamics” (Nature Communications, 2025).
# Where two headings read alike, the source gives them in different places.
# Legend:
# [1] = biological target: T1, endogenous DHFR-C-HiBiT in HEK293 cell lysate (Homo sapiens, UniProt P00374); experiment: SDR assay, cellular lysate from DHFR C-terminus HiBiT gene edited HEK293 cells; type: binding
# T1 construct: from a mammalian cellular lysate containing an endogenous α-peptide tagged protein, obtained using CRISPR/Cas9-mediated homologous recombination; host or cells: HEK293 constitutively expressing S. pyogenes Cas9, CRISPR/HDR-edited monoclonal line; NP-40 lysate used at 1:100
# T1 sequence (P00374 1-187): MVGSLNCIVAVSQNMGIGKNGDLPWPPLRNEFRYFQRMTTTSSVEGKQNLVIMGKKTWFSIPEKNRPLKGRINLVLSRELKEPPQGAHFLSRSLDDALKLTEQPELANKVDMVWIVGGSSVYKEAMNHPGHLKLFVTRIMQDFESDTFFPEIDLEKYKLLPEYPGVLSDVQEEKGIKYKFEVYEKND
# Text: A HEK293 cell line constitutively expressing S. pyogenes Cas9 (GeneCopoeia, Cat # SL553) was used to generate the C-terminal edit of the DHFR gene (DHFR-C-HiBiT) applying general methodology previously described[24],[52],[53]. The DHFR 3’-gene sequence surrounding the stop codon (underlined), […] […], used to generate the CRISPR-Cas9 crRNA sequence, […], was accomplished with IDT software (Custom Alt-R CRISPR-Cas9 guide RNA).
# For lysate preparation, the DHFR-C-HiBiT gene edited HEK293 monoclonal cell line was grown in a T75 flask (DMEM, 10% FBS, 1% P/S) to confluence. […] The cell pellet was lysed by adding 500 μL ice-cold NP-40 lysis buffer (ThermoFisher Scientific, Cat # FNN0021) containing 5 µL 100x protease inhibitor cocktail in DMSO (Sigma Aldrich, Cat # P8340-1mL) incubated on a rocker at 4 °C for 1 h (protected from light), centrifuged at 15,000 g for 10 min at 4 °C, after which supernatant was transferred to a 1.5 mL Eppendorf tube, and frozen at −80 °C.
# Protein-HiBiT targets were expressed and purified to various levels of homogeneity and optimized at indicated concentrations, not necessarily the lowest possible concentrations, to produce consistent luminescence with statistically significant signal above no protein background control in target specific assay buffer (see Supplementary Table 11). Four μL/well buffer control (column 1) and NLuc or HiBiT tagged proteins (columns 2-48) were dispensed into 1536-well Greiner Bio-One white, high solid base, medium bind plates with a BioRaptr 2. Compounds and controls were added to the microtiter plates as described in Supplementary Data 8, then incubated and protected from light for 30 min at ambient temperature. A modified dispensing protocol was developed for aqueous ligands that were unable to be transferred by pintool (see Supplementary Table 10 aqueous ligand dispense section). The substrate solution was prepared according to manufacturer’s protocol where ω-fragment (LgBiT) was added at 1:100 dilution and NLuc substrate (furimazine) was prepared at 1:50 dilution in Nano-Glo HiBiT lytic buffer (Promega, Cat # N3040). This substrate solution, 3 μL/well, was added with a BioRaptr 2 and assay plates were protected from light and incubated for 10 min at ambient temperature. NLuc luminescence was measured on a ViewLux CCD plate reader with optimized reader settings to each protein target (see Supplementary Tables 10, 11 and Supplementary Fig. 14 for additional details).
# DHFR-C-HiBiT [2] = biological target: T2, DHFR-C-HiBiT (Homo sapiens, UniProt P00374); experiment: SDR assay, purified DHFR-C-HiBiT
# T2 sequence (P00374 2-187): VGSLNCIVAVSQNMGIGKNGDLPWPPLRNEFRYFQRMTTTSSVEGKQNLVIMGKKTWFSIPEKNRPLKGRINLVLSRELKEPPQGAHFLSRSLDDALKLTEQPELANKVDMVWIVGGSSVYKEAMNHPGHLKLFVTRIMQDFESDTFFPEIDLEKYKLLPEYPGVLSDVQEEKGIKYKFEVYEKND
# DHFR-C-HiBiT [3] = biological target: T2, DHFR-C-HiBiT; experiment: Dihydrofolate reductase enzymatic absorbance assay; type: biochemical; set-up: His10 (C); made in house; host or cells: E. coli
# Procedure: To accommodate consistent compound addition used in this study, DHFR enzymatic activity[72],[73] was measured in a 1536-well miniaturized assay adapted from the Sigma-Aldrich dihydrofolate reductase assay (Cat # CS0340). […] Compounds and controls were added as above to each plate as described in Supplementary Data 8. DHFR-C-HiBiT was incubated with compounds for 20 min at ambient temperature. […] Then 2 µL of dihydrofolate (DHF, Sigma-Aldrich, Cat # D7006) substrate, freshly prepared according to manufacturer’s protocol and diluted in 1X assay kit buffer, was dispensed into each microplate well with a BioRaptr 2 for a final assay DHF concentration of 100 μM. […] See Supplementary Table 9 for additional details.
# Supplementary Table 9. Protocol for Dihydrofolate reductase (DHFR) enzymatic absorbance […]
# Supplementary Table 9: Protocol for Dihydrofolate reductase (DHFR) enzym atic absorbance assay Sequence Param eter ValueDescription
# No enzym e control (colum n 1) and enzym e solution (100 nM DHFR-C-HiBiT final assay […]
# (Aurora), dispensed with BioRaptr 2 […]
# com pounds transferred to respective colum ns with Pintool
# 2b Test Com pounds 23 nLfinal concentration range) in colum ns 5-48; com pounds transferred to respective wells with […]
# 3 Incubation 20 m inIncubate enzym e + com pounds at am bient tem p for 20 m in, protected from light 5 Reagent 2 µLSubstrate solution; dihydrofolic acid (100 µM final concentration) in 1X assay buffer; dispensed with BioRaptr 2
# 6 Incubation 10 m inAm bient tem perature, protected from light
# Dihydrofolic acid substrate solution: 1X assay buffer (Sigm a-Aldrich, Cat # A5603); 300 µM dihydrofolic acid (100 µM 5 final) (Sigm a-Aldrich, Cat # D7006) prepared fresh according to m anufacturer’s protocol. Solution filtered through 0.22 µm syringe filter prior to dispense.
SMILES,"EC50 ([1]; 1:100 lysate (~0.2 nM) with 1 mM NADPH, read-out: pSDR50 (lysate + 1 mM NADPH), Mean (converted)) [nM]","EC50 ([1]; 1:100 lysate (~0.2 nM) without added NADPH, read-out: pSDR50 (lysate), Mean (converted)) [nM]",EC50 (DHFR-C-HiBiT [2]) [nM],"enhanced sensitivity in the SDR assay format versus functional DHFR assay (DHFR-C-HiBiT [2]; DHFR-C-HiBiT 0.5 nM, 5 μM NADPH (SDR) vs 100 nM, 75 μM NADPH (functional))","IC50 (DHFR-C-HiBiT [3]; functional DHFR-C-HiBiT assay (100 nM), read-out: pIC50 (DHFR Enz Assay), Mean (converted)) [nM]","pSDR50 (lysate + 1 mM NADPH), Mean ([1]; 1:100 lysate (~0.2 nM) with 1 mM NADPH)","pSDR50 (lysate), Mean ([1]; 1:100 lysate (~0.2 nM) without added NADPH)","pSDR50 (DHFR-C-HiBiT), Mean (DHFR-C-HiBiT [2]; SDR assay using DHFR-C-HiBiT (0.5 nM))","pIC50 (DHFR Enz Assay), Mean (DHFR-C-HiBiT [3]; functional DHFR-C-HiBiT assay (100 nM, 75 mM NADPH))"
C#CCC(Cc1cnc2nc(N)nc(N)c2n1)c1ccc(C(=O)N[C@@H](CCC(=O)O)C(=O)O)cc1 (stereo partly drawn) [pralatrexate],0.316,3.16,1.02,~ 100 fold,107,,,,
CN(Cc1cnc2nc(N)nc(N)c2n1)c1ccc(C(=O)NC(CC(F)C(=O)O)C(=O)O)cc1 (stereo not drawn) [g-fluoromethotrexate],,,,,,9.1,7.8,8.70,6.55
